US6156765A, “Method of treating and preventing vasospasm” (The United States of America as represented by the …, priority 1996, dated 2000)
“And” between values parts separate entries of the source, which are not always exact repeats. Equal entries are not always repeated.

Tests used:
[1] = Harada et al. 1992; Vollmer et al. 1991; cited from earlier work
[2] = ferric iron; cited from earlier work
[3] = Peters et al. 1966; Oubidar et al. 1994; cited from earlier work
[4] = ferrous iron; cited from earlier work
[5] = Afshar et al. 1995; cited from earlier work
[6] = Clinical observations for signs of drug toxicity; assay type: in vivo, cynomologous macaques
Description: (§1) Eleven (11) cynomologous macaques (8 male and 3 female, weight 3.0-5.9 kg.) were randomly divided into 2 groups. Craniotomy was performed in all animals and autologous clot was placed around the right middle cerebral artery (R MCA) after the arachnoid membrane was removed, as described elsewhere [Pluta et al., J. Neurosurg. 77:740-748 (1992)]. Six animals (3 male and 3 female) received IV infusion of 2,2'-dipyridyl (70 mg/kg/day) continuously for 14 days. Between postoperative days 7 and 10, cerebral arteriography was used to assess the presence and degree of vasospasm using methods previously described [Pluta et al., J. Neurosurg. 77:740-748 (1992)]. The five control animals (all male) received IV infusion of saline in a volume equal to that delivered in the experimental group (10-15 cc/kg/day). Two pilot animals were also used in an initial phase in order to establish an effective experimental dose. One received 44 mg/kg/day of IV 2,2'-dipyridyl, and the other received up to 100 mg/kg/8 hrs of IV 2,2'-dipyridyl.
The monkeys were observed daily for changes in weight, feeding, behavior, alertness, and neurologic function. The monkeys also were observed closely for signs of drug toxicity, including tremors, emesis, vomiting, diarrhea, seizures, and CNS depression [Sigma MSDS, CAS #366-18-7, 1994].
Pilot studies were done to determine the experimental dosage. […] The second pilot animal received up to 100 mg/kg/8 hours. […] These two pilot animals were then excluded from further data analysis.

[7] = test system: liver, kidney, brain and other tissues; test: Gross and microscopic anatomic pathology; assay type: in vivo, cynomologous macaques; design: key to Toxicity Liver: L+: swelling of hepatocytes; L++: degeneration; L+++: lipidosis (#73, #105), regeneration (885N); details: IV 70 mg/kg/day for 14 days
Description: as §1
Tissues were studied for gross and microscopic anatomic pathology by Dr. Michael Eckhaus and staff (Veterinary Resources Program, National Center for Research Resources, NIH, Bethesda, Md.).

[8] = test system: right middle cerebral artery (R MCA); test: Arteriographic vasospasm of the R MCA in primate model of SAH (autologous clot placement); assay type: in vivo, cynomologous macaques; details: for arteriographic vasospasm: 70 mg/kg/day
Description: as §1
Each monkey underwent arteriographic study of the R MCA 3 to 21 days before surgery and 7 to 10 days after clot placement [Pluta et al., J. Neurosurg. 77:740-748 (1992)]. Under general anesthesia (ketamine 10 mg/kg and isoflurane) and sterile conditions, a cutdown of the right femoral artery was performed and a No. 3 French catheter was advanced to the right ICA. Fluoroscopy (C-arm; OEC) and intravenous contrast (2 cc Conray, 60%; Malinkrodt Medical, St. Louis, Mo.), were used to acquire subtraction images of the vessel. A radiopaque ruler was placed in the field to allow standardized measurements.
(§2) All studies were performed in the standard anteroposterior projection (AP). During the arteriography, the end-tidal CO2 was maintained at 40 mm Hg and core body temperature was maintained at 37 degrees Celsius using a heating pad. Blood pressures were monitored during all procedures.
Placement of Subarachnoid Clot and Indwelling Intravenous Catheter
As in previous studies [Pluta et al., J. Neurosurg. 77:740-748 (1992)], each animal was anesthetized as follows. Each monkey was given an injection of ketamine (10 mg/kg IM), atropine sulfate (0.05 mg/kg IM), and sodium thiopental (25 mg/kg IV). The animals were intubated and ventilated with isoflurane (0.5%-1.0%) and 100% O2 and paralyzed with pancuronium (0.1 mg/kg). Each animal was hyperventilated to an end-tidal CO2 of 30 to 40 mm Hg.
Each animal was placed in the supine position for a right frontotemporal craniotomy. Under sterile conditions, the dura was opened and the R MCA was identified in the sylvian fissure. Using the operating microscope, the arachnoid membrane over the R MCA was dissected from the trifurcation to the origin of the vessel at the ICA bifurcation. 8-10 cc of autologous clotted arterial blood obtained by an assistant via a left femoral cutdown was then placed along the length of the exposed vessel. The dura was then closed in a watertight fashion, followed by the muscle and skin layers.
Each animal was then repositioned for placement of a 6.6 French Broviac catheter in the left femoral vein. […] The distal end of the catheter was passed subcutaneously to the midscapular region and secured. Each monkey was fitted in a jacket containing an infusion pump (Disetronic Medical Systems, Plymouth, Minn.) which delivered 70 mg/kg (60 cc/24 hours) of the 2,2'-dipyridyl solution. Each monkey was sedated daily with ketamine (10 mg/kg IM) to change the delivery pump. […]

[9] = Blood pressure monitoring; assay type: in vivo, cynomologous macaques; details: all animals except pilot animal receiving 100 mg/kg/8 hours; 14-day treatment
Description: as §1, §2

[10] = Serum iron concentration in treated animals; assay type: in vivo, cynomologous macaques; details: drug-treated animals, 70 mg/kg/day
Description: as §1
Plasma samples were collected on days 0 and 7 of each experiment and were analyzed by Maryland Medical Pathology (Rockville, Md.) for serum iron and percent transferrin saturation. Due to the molecular complexity of iron chelators, direct assays for these drugs are not available. […]

[11] = test system: transferrin; test: Percent transferrin saturation in treated animals; assay type: in vivo, cynomologous macaques
Description: as §1
Plasma samples were collected on days 0 and 7 of each experiment and were analyzed by Maryland Medical Pathology (Rockville, Md.) for serum iron and percent transferrin saturation. Due to the molecular complexity of iron chelators, direct assays for these drugs are not available.
Data are reported as means of measurements by three individuals ±SEM and compared using an unpaired […] test. Significance was accepted at p<0.05.

[12] = background statement; cited from earlier work
[13] = NO versus oxygen; cited from earlier work
[14] = pilot animal, IV 44 mg/kg/24 hours for 14 days

## CC(=O)N(O)CCCCCNC(=O)CCC(=O)N(O)CCCCCNC(=O)CCC(=O)N(O)CCCCCN [deferoxamine]
[1]
  success in potential therapies for vasospasm: limited success
[2]
  deferoxamine-iron stability constant for Fe^+3: 10^31
[3]
  CSF levels before toxic systemic effects appear: adequate CSF levels cannot be achieved before toxic systemic effects appear
  penetrability of the blood-brain barrier: limited penetrability
[4]
  deferoxamine-iron stability constant for Fe^+2: 10^2 to 10^14

## nitric oxide [NO]
[5]
  effect of intracarotid infusion on vasospasm: reversal of vasospasm

## c1ccc(-c2ccccn2)nc1 [2,2'-dipyridyl]
[6]; 70 mg/kg/day
  toxicity at the effective dose: mild
[6]; IV 70 mg/kg/day
  resolution of tremors and leg weakness, animal #1: ≤ 4 days
  resolution of tremors and leg weakness, animal #2: did not resolve in animal #2 by day 14
  resolution of tremors and leg weakness, animal #4: ≤ 6 days
[6]; animals #1, #2, and #4, IV 70 mg/kg/day for 14 days
  toxic symptoms: mild tremors of the upper and lower extremities, and leg weakness
[6]; animals #3, #5, and #6, IV 70 mg/kg/day for 14 days
  toxic symptoms: no toxic symptoms
[6]; control or treated animals, IV 70 mg/kg/day for 14 days
  weight loss, changes in feeding habits, or alertness: None
[6]; [14]
  signs of toxicity: no sign of toxicity
[6]; pilot animal, IV up to 100 mg/kg/8 hours, sacrificed on fourth day of drug delivery
  symptoms of toxicity: symptoms of toxicity (tremors, emesis, and diarrhea)
[7]
  brain changes (substantia nigra, cerebellum Purkinje cells): No brain changes
  gross pathology: brain, liver, kidney, lymph nodes, spleen, intestine, gonads, or skeletal or cardiac muscle: no toxicity
  kidney pathology (collecting tubules), animals #2 and #5: Multifocal casts
  kidney pathology, animals #1, #3, #4, or #6: No sign of nephrotoxicity
  liver pathology, animals #1, #3, #4, and #5: Hepato-cellular swelling
  liver pathology, animals #2 and #6: Hepatocellular degeneration
  liver pathology, overall: Mild changes
  microscopic pathology: brain (substantia nigra and cerebellar Purkinje cells), lymph nodes, spleen, intestine, gonads, or skeletal or cardiac muscle: no toxicity
[7]; individual monkey, 70 mg/kg/day
  Toxicity Liver: L+ and L++
[8]; IV 70 mg/kg/day for 14 days, n=6, postoperative day 7-10
  arteriographic vasospasm: no arteriographic vasospasm
[8]; IV 70 mg/kg/day for 14 days, n=6, postoperative day 7-10, listed as DP
  arteriographic vasospasm: no spasm
[8]; IV 70 mg/kg/day for 14 days, n=6, postoperative day 7-10, mean ± SEM, p<0.0001, control 44.8%±4.6%
  mean AP area of the proximal portion of the MCA, of the baseline area: 3.9%±4.3
[8]; [14]
  vasospasm (reduction of AP area of R MCA): 20%
  vasospasm grade: mild (reduction in the AP area of the defined segment of the MCA of 12-25%)
[9]
  blood pressures during preoperative and postoperative arteriography: stable and equivalent blood pressures
[10]
  serum iron, day 7 as compared to day 0: markedly reduced
[11]; 70 mg/kg/day
  percent saturation of transferrin, change in treated animals: decreased
[11]; individual monkey, day 0, IV 70 mg/kg/day, 70 mg/kg/day
  TransFe sat % Day 0: 40% and 32% and 31% and 33%
[11]; individual monkey, day 7, IV 70 mg/kg/day, 70 mg/kg/day
  TransFe sat % Day 7: 2% and 0% and -1% and -2% and -4%
[11]; mean of table, day 0, IV 70 mg/kg/day
  TransFe sat % Day 0, Mean: 34 ± 4%
[11]; mean of table, day 7, p < 0.0001, IV 70 mg/kg/day
  TransFe sat % Day 7, Mean: -1.2 ± 2%

## oxyhemoglobin: the clinically-relevant vasospastic agent
[12]
  vasospastic activity: vasospastic

## Hemoglobin: Hemoglobin has a strong affinity for NO
[13]
  binding to NO more readily than to oxygen: 1,500 fold
